# Test results from PMC9511481 (Journal of Medicinal Chemistry, 2022).
# Values joined by “and” are separate entries in the source; they are usually repeats but may differ in a detail not shown here. Equal values may be shown once. Where a name gives a salt, the structure may show the parent alone. Read-outs that look alike come from different tables or passages of the source.
# Experiments:
# 5-HT2AR [1] = target: T1, 5-HT2AR (Homo sapiens, UniProt P28223); test: cell-based; type: cell-based; conditions: for Emax: HEK-293T, read-out: β-arr2 Emax (%) [CI]
# T1 construct: expressed in transfected cells; host or cells: HEK 293T (transient transfection)
# Target sequence in this assay (P32121 whole entry): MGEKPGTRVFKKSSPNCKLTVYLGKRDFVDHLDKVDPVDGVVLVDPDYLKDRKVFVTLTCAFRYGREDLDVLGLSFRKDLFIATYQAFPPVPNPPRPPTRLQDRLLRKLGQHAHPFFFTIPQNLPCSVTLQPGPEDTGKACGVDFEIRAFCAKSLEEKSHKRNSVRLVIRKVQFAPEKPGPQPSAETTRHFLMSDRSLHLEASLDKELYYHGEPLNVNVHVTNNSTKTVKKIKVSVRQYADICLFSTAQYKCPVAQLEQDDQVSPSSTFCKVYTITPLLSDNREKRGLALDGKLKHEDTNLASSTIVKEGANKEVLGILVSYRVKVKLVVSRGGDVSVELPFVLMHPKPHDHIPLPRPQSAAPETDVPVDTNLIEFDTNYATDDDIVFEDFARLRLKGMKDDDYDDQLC
# Target sequence in this assay (P28223 whole entry): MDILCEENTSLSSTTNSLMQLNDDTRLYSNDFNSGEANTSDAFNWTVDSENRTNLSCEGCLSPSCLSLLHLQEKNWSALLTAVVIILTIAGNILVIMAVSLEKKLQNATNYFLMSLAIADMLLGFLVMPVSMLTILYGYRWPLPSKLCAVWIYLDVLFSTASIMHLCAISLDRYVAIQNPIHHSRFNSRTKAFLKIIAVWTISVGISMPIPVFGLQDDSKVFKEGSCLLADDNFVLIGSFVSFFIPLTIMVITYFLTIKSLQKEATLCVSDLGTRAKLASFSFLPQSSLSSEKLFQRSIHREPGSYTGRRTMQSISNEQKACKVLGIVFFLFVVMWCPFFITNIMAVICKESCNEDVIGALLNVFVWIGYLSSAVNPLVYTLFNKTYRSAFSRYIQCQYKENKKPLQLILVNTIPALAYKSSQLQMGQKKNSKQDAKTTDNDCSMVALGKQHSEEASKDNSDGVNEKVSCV
# 5-HT2AR [2] = target: T1, 5-HT2AR; test: cell-based; type: cell-based
# Target sequence in this assay (P28223 whole entry): as above
# [3] = system: 5-HT2AR S159A-mutated receptor; test: Bias factor (βarr2 vs miniGαq recruitment), intrinsic relative activity approach, S159A mutated 5-HT2AR; type: cell-based, human; conditions: 5-HT2A-S159A; for Alternative β-factor: from the combined EC50 and Emax values; for β-factor: average of three experiments
# Description: The resulting data were analyzed as described before in more detail.[55] In brief, the obtained time–luminescence profiles are corrected for interwell variability and used for the calculation of the area under the curve (AUC), from which the AUC of the corresponding solvent control is subtracted. Data are then normalized using GraphPad Prism software (San Diego, CA), where the maximal response of the reference agonist is arbitrarily set at 100%. After pooling the data of the individual experiments, the potency and efficacy values are calculated in GraphPad Prism through three parametric nonlinear regression analysis. To quantify the tendency of the measured substances toward preferentially inducing one pathway or the other, bias factors are calculated via the “intrinsic relative activity approach.[56],[57] In this approach, an RAi value is calculated for each substance in each of the measured assays, relative to a reference agonist, using the following formula [drawing 1] The obtained values for the respective pathways are then combined into a bias factor, βi [drawing 2] This formula implies that the value of βi for the reference agonist is 0. A positive bias factor indicates a preference toward the recruitment of βarr2 over miniGαq, compared to the respective reference agonist. A negative bias factor then points to a relative preference toward the recruitment of miniGαq over βarr2. To assess whether the obtained bias factors are statistically significant from 0, a Kruskal–Wallis analysis (which is the nonparametric counterpart of one-way analysis of variance (ANOVA), selected a priori to avoid presumptuous conclusions) with post hoc Dunn’s multiple comparison was carried out in GraphPad Prism. To qualitatively visualize the possible preference of a certain substance towards recruiting either one cytosolic protein or the other, bias plots were generated via GraphPad Prism. To this end, the normalized AUC values obtained in the βarr2 assay are plotted on the x-axis, and those obtained in the miniGαq assay are plotted on the y-axis. On each plot, both the respective reference agonist and one substance of interest are plotted, and a curve is fitted through the centered second-order (quadratic) polynomial fitting.[58]
# [4] = system: 5-HT2AR S159A-mutated receptor; test: cell-based; type: cell-based, human
# [5] = target: T2, 5-HT2AR S159A-mutated receptor (Homo sapiens, UniProt P28223, S159A); test: cell-based; type: cell-based; conditions: for Emax: read-out: miniGαq Emax (%) [CI]
# T2 construct: expressed in transfected cells; host or cells: HEK 293T (transient transfection); mutant made by site-directed mutagenesis of 5-HT2AR-LgBiT
# Target sequence in this assay (P28223 whole entry S159A): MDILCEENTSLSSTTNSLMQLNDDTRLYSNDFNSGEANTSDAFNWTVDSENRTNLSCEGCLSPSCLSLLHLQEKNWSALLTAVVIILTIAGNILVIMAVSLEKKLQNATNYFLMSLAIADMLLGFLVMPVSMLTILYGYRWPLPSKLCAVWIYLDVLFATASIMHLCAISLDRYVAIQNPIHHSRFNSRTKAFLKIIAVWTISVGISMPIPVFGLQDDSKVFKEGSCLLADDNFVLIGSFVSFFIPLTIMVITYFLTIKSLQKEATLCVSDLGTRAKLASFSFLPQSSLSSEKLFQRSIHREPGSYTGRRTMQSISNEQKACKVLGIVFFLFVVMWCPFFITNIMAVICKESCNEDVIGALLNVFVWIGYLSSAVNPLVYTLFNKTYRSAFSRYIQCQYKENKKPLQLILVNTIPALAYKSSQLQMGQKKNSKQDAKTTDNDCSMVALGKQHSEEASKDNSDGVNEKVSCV
# [6] = target: T2, 5-HT2AR S159A-mutated receptor; test: cell-based; type: cell-based; conditions: for EC50: read-out: β-arr2 EC50 (nM) [CI]
# Target sequence in this assay (P28223 whole entry S159A): as above
# Target sequence in this assay (P32121 whole entry partner): as the sequence (P32121 whole entry) above
# 5-HT2AR [7] = target: T1, 5-HT2AR; type: cell-based
# Target sequence in this assay (P28223 whole entry): as the sequence (P28223 whole entry) above
# 5-HT2AR [8] = conditions: 5-HT2AR S159A vs WT; ref 52 (Kim et al.); cited from earlier work
# 5-HT2AR [9] = target: T1, 5-HT2AR; parameters: method as in PMID 32998000; conditions: wild-type 5-HT2AR; previously reported values; cited from earlier work
# Target sequence in this assay (P28223 whole entry): as above
# 5-HT2AR [10] = target: T1, 5-HT2AR; parameters: method as in PMID 32998000; conditions: wild-type 5-HT2AR; previously reported values; cited from earlier work; remark: listed apart in the source
# Target sequence in this assay (P32121 whole entry): as the sequence (P32121 whole entry) above
# Target sequence in this assay (P28223 whole entry): as the sequence (P28223 whole entry) above
# 5-HT2AR over 5-HT2CR = conditions: cited from earlier work
# 5-HT2AR [11] = system: 5-HT2AR; parameters: method as in PMID 35084960; conditions: partial agonist with bias toward βarr2 over Gαq-γ9, reference 5-HT; cited from earlier work
# [12] = read-out: miniGαq EC50 (nM) [CI]
# [13] = read-out: β-arr2 EC50 (nM) [CI]
SMILES,β-arr2 Emax (%) [CI] (5-HT2AR [1]) [%],Emax (5-HT2AR [1]) [%],EC50 (5-HT2AR [2]; [12]),EC50 (5-HT2AR [1]; [13]),Alternative β-factor ([3]; referenced with 5-HT),Alternative β-factor ([3]; referenced with LSD),"Reduction of agonist potency at 5-HT2AR S159A compared to WT, miniGαq recruitment assay [4] [fold]","EC50 [5, 12]","Reduction of agonist potency at 5-HT2AR S159A compared to WT, βarr2 recruitment assay [6]",β-arr2 Emax (%) [CI] [6],EC50 [6],further results
"COc1cc(CCNC2COc3ccccc32)c(OC)cc1Br (racemic) [(±)-4c, (±)-N-(4-Bromo-2,5-dimethoxyphenethyl)-2,3-dihydrobenzofuran-3-amine Hydrochloride]",85.5,96.6,23 nM,–,–,–,–,–,–,–,–,EC50 (5-HT2AR [1]; β-arr2 EC50 (nM) [CI]): 28.6 nM and 28.7 nM; EC50 (5-HT2AR [2]): 24.5 nM
"COc1cc(CCNC2CCOc3ccccc32)c(OC)cc1Br (racemic) [(±)-4d, (±)-N-(4-Bromo-2,5-dimethoxyphenethyl)chroman-4-amine Hydrochloride]",108,121,174 nM and 168 nM,132 nM and 134 nM,–,–,–,–,–,–,–,–
"COc1cc(CCNC2COc3ccccc32)c(OC)cc1C#N (racemic) [(±)-6f, (±)-4-(2-((2,3-Dihydrobenzofuran-3-yl)amino)ethyl)-2,5-dimethoxybenzonitrile Hydrochloride]",76.0,82.9,631 nM and 608 nM,108 nM,0.486,1.010,2.6,1650 nM,~10 fold,90.8 [81.9–101] % and 118%,1020 nM and 1030 nM,"Alternative β-factor (5-HT2AR [7]): 1.420 and 0.711; Bias judged from the bias plot, relative to LSD (5-HT2AR [7]): highly biased for βarr2 recruitment; Bias judged from the bias plot, relative to serotonin (5-HT2AR [7]): strong preference toward βarr2 recruitment; Difference in potency between the β-arr2 and miniGαq assays (5-HT2AR [7]): 6 fold"
"COc1cc(CCNCc2cccc(O)c2)c(OC)cc1Br [4a, 3-(((4-Bromo-2,5-dimethoxyphenethyl)amino)methyl)phenol Hydrochloride]",98.9,112,48.8 nM and 46.9 nM,11.1 nM,0.096,0.566,~3,154 nM and 156 nM,approximately 15 fold,89.8 [75.8–108] % and 110%,172 nM and 175 nM,miniGαq Emax (%) [CI] [5]: 36.8%; Emax [5]: 21%
"COc1cccc(CNCCc2cc(OC)c(Br)cc2OC)c1 [4b, 2-(4-Bromo-2,5-dimethoxyphenyl)-N-(3-methoxybenzyl)ethan-1-amine Hydrochloride]",100,113,44.4 nM and 43.3 nM,11.1 nM,0.043,0.494,–,112 nM,7 fold,106 [97.5–114] % and 130%,81.9 nM and 80.4 nM,β-factor ([3]; relative to LSD): 0.565; β-factor ([3]; relative to serotonin (5-HT)): 0.102; EC50 [5]: 118 nM; miniGαq Emax (%) [CI] [5]: 44.7 [36.9–53.9] % and 81.0%
"NCCc1c[nH]c2ccc(O)cc12 [5-HT, serotonin, reference compound]",–,–,–,–,–,–,13,–,–,–,–,"β-factor ([3]; relative to LSD): 0.550; β-factor ([3]; relative to serotonin (5-HT)): 0; Drop in efficacy in the S159A-mutated 5-HT2AR, miniGαq [4]: 173%; Drop in efficacy in the S159A-mutated 5-HT2AR, β-arr2 [6]: 33%; Change of efficacy with the S159A mutation, Gαq-dissociation BRET assay (5-HT2AR [8]): remained roughly unchanged; Decrease in potency with the S159A mutation, Gαq-dissociation BRET assay (5-HT2AR [8]): 157 fold"
"COc1cc(CCNCc2ccccc2OC)c(OC)cc1C#N [6b, 2,5-Dimethoxy-4-(2-((2-methoxybenzyl)amino)ethyl)benzonitrile Hydrochloride]",148,161,6.7 nM and 6.71 nM and 6.53 nM,1.9 nM and 1.93 nM and 1.94 nM,–,–,–,–,–,–,–,–
"COc1cc(CCNCc2ccccc2F)c(OC)cc1C#N [6c, 4-(2-((2-Fluorobenzyl)amino)ethyl)-2,5-dimethoxybenzonitrile Hydrochloride]",105,114,168 nM and 164 nM,53.2 nM and 53.3 nM,0.237,0.842,7,1130 nM,12 fold,86.6 [81.5–92.0] % and 113%,661 nM and 645 nM,β-factor ([3]; relative to LSD): 0.731; β-factor ([3]; relative to serotonin (5-HT)): 0.186; EC50 [5]: 899 nM
"COc1cc(CCNCc2cccc3c2OCO3)c(OC)cc1C#N [6d, 4-(2-((Benzo[d][1,3]dioxol-4-ylmethyl)amino)ethyl)-2,5-dimethoxybenzonitrile Hydrochloride]",106,114,45.1 nM and 47.3 nM,17 nM and 17.1 nM,–,–,–,–,–,–,–,–
"COc1cc(CCNCc2cccc(O)c2)c(OC)cc1C#N [6e, 4-(2-((3-Hydroxybenzyl)amino)ethyl)-2,5-dimethoxybenzonitrile Hydrochloride]",97.5,106,301 nM and 299 nM,84.5 nM,0.577,1.050,6.9,2060 nM,~10 fold,84.1%,939 nM and 938 nM,miniGαq Emax (%) [CI] [5]: 22.9%; Emax [5]: 12.9%; Emax ([6]; read-out: β-arr2 Emax (%) [CI]): 68.2%
COc1cc(CCNCc2ccccc2O)c(OC)cc1I [25I-NBOH],–,–,–,–,–,–,–,–,–,–,–,"Emax, miniGαq assay (5-HT2AR [9]): 111–160%; Emax, βarr2 assay (5-HT2AR [10]): 135–141%"
COc1cc(CCNCc2ccccc2OC)c(OC)cc1I [25I-NBOMe],–,–,–,–,–,–,–,–,–,–,–,"Emax, miniGαq assay (5-HT2AR [9]): 111–160%; Emax, βarr2 assay (5-HT2AR [10]): 135–141%"
"COc1cc(CC2CCCC(c3ccccc3OC)N2)c(OC)cc1Br [(S,S)-DMBMPP]",–,–,–,–,–,–,–,–,–,–,–,Selectivity over 5-HT2CR (5-HT2AR over 5-HT2CR): 124 fold
COc1ccccc1CCCN1CC[C@H]2[C@@H](C1)c1cccc3c1N2CCN3C [IHCH-7086],–,–,–,–,–,–,–,–,–,–,–,Emax (5-HT2AR [11]): 13%
"CCN(CC)C(=O)[C@@H]1C=C2c3cccc4[nH]cc(c34)C[C@H]2N(C)C1 [LSD, lysergic acid diethylamide, reference compound]",90.7,99.7,–,–,–,–,–,–,–,99.9 [93.7–106] % and 128%,–,β-factor ([3]; relative to LSD): 0; β-factor ([3]; relative to serotonin (5-HT)): -0.533
